Legend:
ONS-76 = experiment: Cytotoxicity against human ONS-76 cells measured after 8 days; assay type: functional, cell-based; conditions: ONS-76, 192 h
[1] = molecular target: Adenosine receptor A2a (Homo sapiens) (UniProt P29274); experiment: Displacement of [3H]-CGS 21680 from human recombinant adenosine A2A receptor at 10 uM after 120 mins by scintillation counting analysis relative to control
LP-1 = experiment: Cytotoxicity against human LP-1 cells measured after 8 days; assay type: functional, cell-based; conditions: LP-1, 192 h
[2] = Cytotoxicity against human HCC4019 cells measured after 8 days; assay type: functional, cell-based; conditions: HCC4019, 192 h
[3] = Cytotoxicity against human VMRC-LCD cells measured after 8 days; assay type: functional, cell-based; conditions: 192 h
[4] = molecular target: T1, E3 ubiquitin-protein ligase TRIM33 (Homo sapiens, UniProt Q9UPN9); experiment: Binding affinity to human partial length TRIM33 (D882 to A1087 residues) expressed in bacterial expression system by BROMOscan assay
T1 sequence (Q9UPN9 whole entry): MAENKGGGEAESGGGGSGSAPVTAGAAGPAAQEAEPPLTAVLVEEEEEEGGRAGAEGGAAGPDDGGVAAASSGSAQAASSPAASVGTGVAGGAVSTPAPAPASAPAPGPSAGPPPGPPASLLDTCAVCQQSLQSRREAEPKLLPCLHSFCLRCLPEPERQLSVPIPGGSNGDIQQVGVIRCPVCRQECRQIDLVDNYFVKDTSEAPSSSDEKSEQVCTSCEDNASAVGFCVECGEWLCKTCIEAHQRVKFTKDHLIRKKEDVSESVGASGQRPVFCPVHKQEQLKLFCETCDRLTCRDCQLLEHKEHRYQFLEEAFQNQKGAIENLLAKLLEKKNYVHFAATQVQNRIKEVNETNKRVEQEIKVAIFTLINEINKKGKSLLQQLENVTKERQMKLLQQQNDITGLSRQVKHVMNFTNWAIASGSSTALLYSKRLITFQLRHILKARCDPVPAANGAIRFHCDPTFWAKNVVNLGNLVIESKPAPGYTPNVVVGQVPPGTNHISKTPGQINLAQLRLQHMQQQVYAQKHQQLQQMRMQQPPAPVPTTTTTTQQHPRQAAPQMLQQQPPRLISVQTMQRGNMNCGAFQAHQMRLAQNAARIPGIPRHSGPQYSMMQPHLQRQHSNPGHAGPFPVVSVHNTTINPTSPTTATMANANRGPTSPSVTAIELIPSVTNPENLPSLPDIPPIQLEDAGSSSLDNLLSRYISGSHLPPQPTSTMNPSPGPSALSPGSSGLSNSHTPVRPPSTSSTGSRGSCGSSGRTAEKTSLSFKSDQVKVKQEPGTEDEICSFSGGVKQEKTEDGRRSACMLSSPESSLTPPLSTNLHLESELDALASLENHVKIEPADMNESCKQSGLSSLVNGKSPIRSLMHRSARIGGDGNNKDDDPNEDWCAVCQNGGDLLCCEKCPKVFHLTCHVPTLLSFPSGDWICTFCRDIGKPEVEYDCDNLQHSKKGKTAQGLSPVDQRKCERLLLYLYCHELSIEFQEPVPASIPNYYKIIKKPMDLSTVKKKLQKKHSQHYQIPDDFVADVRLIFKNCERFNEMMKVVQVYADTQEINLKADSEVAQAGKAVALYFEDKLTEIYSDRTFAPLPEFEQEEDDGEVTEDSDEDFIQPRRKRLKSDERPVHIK

NCI-H28 = experiment: Cytotoxicity against human NCI-H28 cells measured after 8 days; assay type: functional, cell-based; conditions: NCI-H28, 192 h
U-698-M = experiment: Cytotoxicity against human U-698-M cells measured after 8 days; assay type: functional, cell-based; conditions: 192 h
SUD4 = experiment: Cytotoxicity against human SU-DHL-4 cells measured after 8 days; assay type: functional, cell-based; conditions: SU-DHL-4, 192 h
NCI-H1993 = experiment: Cytotoxicity against human NCI-H1993 cells measured after 8 days; assay type: functional, cell-based; conditions: NCI-H1993, 192 h
[5] = Cytotoxicity against human OVTOKO cells measured after 8 days; assay type: functional, cell-based; conditions: 192 h
[6] = molecular target: Mitogen-activated protein kinase kinase kinase kinase 4 (Homo sapiens) (UniProt O95819); experiment: Inhibition of MAP4K4 (unknown origin) at 1 uM relative to control
Mitogen-activated protein kinase kinase kinase kinase 4 (Homo sapiens), sequence (O95819 2-1239 limits assumed): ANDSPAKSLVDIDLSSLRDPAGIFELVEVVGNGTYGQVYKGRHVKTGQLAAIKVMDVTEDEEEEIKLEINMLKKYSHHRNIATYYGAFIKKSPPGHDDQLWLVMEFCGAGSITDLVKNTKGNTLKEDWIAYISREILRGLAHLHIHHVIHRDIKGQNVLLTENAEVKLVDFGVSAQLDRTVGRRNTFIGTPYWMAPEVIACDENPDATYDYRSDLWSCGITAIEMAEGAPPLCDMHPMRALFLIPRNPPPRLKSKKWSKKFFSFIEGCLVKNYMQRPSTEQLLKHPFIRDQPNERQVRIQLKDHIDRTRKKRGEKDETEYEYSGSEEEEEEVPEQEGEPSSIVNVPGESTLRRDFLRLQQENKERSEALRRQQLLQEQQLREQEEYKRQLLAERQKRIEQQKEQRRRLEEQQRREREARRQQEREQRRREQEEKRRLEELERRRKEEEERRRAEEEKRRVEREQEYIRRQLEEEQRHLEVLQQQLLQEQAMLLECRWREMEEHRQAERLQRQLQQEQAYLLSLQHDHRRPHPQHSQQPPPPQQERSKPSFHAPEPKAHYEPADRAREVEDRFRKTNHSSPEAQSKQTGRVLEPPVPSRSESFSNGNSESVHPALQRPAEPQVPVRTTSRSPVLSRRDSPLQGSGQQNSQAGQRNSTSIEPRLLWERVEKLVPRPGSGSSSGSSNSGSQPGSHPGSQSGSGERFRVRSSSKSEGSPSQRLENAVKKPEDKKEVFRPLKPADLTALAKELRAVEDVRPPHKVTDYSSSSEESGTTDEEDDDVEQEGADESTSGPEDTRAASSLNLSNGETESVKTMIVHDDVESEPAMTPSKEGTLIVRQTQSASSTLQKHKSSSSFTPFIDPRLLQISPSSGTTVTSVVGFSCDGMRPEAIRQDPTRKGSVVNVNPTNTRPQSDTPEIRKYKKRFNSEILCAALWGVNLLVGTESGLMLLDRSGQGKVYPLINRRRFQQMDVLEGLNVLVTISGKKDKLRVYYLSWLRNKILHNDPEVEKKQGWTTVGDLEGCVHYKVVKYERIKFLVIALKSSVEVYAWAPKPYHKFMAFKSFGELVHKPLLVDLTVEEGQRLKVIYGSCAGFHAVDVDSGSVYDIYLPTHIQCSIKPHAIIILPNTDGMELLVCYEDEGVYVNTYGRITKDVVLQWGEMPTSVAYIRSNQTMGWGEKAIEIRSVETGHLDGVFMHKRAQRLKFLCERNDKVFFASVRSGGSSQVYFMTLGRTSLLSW

[7] = molecular target: Cyclin-dependent kinase 2/cyclin A (Homo sapiens) (UniProt P24941+P20248+P78396); experiment: Inhibition of CDK2/cyclin A (unknown origin) at 1 uM relative to control; assay type: protein-complex assay
[8] = molecular target: Cyclin-dependent kinase 5/CDK5 activator 1 (Homo sapiens) (UniProt Q00535+Q15078); experiment: Inhibition of CDK5/p25 (unknown origin) at 1 uM relative to control; assay type: protein-complex assay
Cyclin-dependent kinase 5/CDK5 activator 1 (Homo sapiens), sequence (Q00535 whole entry): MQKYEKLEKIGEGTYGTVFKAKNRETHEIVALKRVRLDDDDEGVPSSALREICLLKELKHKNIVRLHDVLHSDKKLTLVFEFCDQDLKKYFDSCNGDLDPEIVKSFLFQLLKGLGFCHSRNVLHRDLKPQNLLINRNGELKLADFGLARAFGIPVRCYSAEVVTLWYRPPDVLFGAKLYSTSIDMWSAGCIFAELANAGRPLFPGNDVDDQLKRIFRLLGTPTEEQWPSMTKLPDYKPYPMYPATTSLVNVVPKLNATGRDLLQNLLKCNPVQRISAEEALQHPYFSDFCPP
Cyclin-dependent kinase 5/CDK5 activator 1 (Homo sapiens), sequence (Q15078 99-307 partner limits assumed): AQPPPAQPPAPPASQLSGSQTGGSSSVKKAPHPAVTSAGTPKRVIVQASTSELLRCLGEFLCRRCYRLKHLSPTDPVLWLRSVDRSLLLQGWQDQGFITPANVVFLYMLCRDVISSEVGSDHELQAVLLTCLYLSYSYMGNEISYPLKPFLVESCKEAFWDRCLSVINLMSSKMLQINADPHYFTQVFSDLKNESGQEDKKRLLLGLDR

BJAB = experiment: Cytotoxicity against human BJAB cells measured after 8 days; assay type: functional, cell-based; conditions: 192 h
[9] = Cytotoxicity against human GP2d cells measured after 8 days; assay type: functional, cell-based; conditions: 192 h
LCLC-103H cell line = experiment: Cytotoxicity against human LCLC-103H cell line measured after 8 days; assay type: functional, cell-based; conditions: 192 h
[10] = molecular target: Bromodomain-containing protein 4 (Homo sapiens, UniProt O60885); experiment: Binding affinity to full length BRD4 short isoform (unknown origin) by BROMOscan assay
NCI-H522 = experiment: Cytotoxicity against human NCI-H522 cells measured after 8 days; assay type: functional, cell-based; conditions: NCI-H522, 192 h
[11] = molecular target: T2, 5-hydroxytryptamine receptor 1A (Homo sapiens) (UniProt P08908); experiment: Displacement of [3H]8-OH-DPAT from recombinant human 5-HT1A receptor at 10 uM after 60 mins by scintillation counting analysis relative to control
T2 sequence (whole entry): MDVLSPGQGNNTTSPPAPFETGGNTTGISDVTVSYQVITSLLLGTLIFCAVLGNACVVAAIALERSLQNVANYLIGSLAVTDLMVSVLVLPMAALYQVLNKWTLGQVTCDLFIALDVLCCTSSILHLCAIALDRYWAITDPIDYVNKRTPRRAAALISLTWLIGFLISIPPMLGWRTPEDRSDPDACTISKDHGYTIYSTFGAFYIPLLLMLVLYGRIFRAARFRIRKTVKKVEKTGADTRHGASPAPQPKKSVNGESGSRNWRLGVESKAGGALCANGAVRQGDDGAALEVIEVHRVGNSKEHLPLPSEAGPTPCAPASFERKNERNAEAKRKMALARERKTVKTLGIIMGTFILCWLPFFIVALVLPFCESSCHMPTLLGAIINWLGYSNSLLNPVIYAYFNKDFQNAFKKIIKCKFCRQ

Hs 294T = experiment: Cytotoxicity against human Hs294T cells measured after 8 days; assay type: functional, cell-based; conditions: 192 h
CAMA-1 = experiment: Cytotoxicity against human CAMA-1 cells measured after 8 days; assay type: functional, cell-based; conditions: CAMA-1, 192 h
[12] = Cytotoxicity against human NCI-H2731 cells measured after 8 days; assay type: functional, cell-based; conditions: NCI-H2731, 192 h
HT-29 = experiment: Cytotoxicity against human HT-29 cells measured after 8 days; assay type: functional, cell-based; conditions: HT-29, 192 h
CW-2 = experiment: Cytotoxicity against human CW-2 cells measured after 8 days; assay type: functional, cell-based; conditions: CW-2, 192 h
[13] = molecular target: 5-hydroxytryptamine receptor 1B (Rattus norvegicus) (UniProt P28564); experiment: Displacement of [125I]-CYP from rat brain 5-HT1B receptor at 10 uM after 120 mins by scintillation counting analysis relative to control
5-hydroxytryptamine receptor 1B (Rattus norvegicus), sequence (P28564 whole entry): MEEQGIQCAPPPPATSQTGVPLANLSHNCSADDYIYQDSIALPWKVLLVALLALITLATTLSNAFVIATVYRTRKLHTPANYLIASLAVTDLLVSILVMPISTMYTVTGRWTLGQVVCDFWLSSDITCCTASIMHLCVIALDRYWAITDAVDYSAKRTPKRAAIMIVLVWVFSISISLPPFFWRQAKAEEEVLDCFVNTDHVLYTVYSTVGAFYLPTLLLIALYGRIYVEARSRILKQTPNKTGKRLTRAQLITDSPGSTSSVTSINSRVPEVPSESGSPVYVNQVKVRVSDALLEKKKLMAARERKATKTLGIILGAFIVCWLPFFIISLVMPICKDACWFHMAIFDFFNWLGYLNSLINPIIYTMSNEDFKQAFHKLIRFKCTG

Adenosine receptor A2a (Homo sapiens), sequence (P29274 whole entry): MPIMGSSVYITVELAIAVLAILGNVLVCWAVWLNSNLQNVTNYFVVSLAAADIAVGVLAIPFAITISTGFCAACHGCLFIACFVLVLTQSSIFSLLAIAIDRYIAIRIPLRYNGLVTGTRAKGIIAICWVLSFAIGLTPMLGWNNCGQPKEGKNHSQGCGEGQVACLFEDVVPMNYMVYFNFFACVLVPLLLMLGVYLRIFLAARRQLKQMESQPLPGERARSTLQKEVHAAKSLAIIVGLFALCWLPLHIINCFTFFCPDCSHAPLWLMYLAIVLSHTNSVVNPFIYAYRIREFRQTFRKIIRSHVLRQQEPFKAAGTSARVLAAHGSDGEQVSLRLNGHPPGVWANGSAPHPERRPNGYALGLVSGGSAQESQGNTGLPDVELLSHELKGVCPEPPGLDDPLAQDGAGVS

| SMILES | IC50 (ONS-76) | Activity [1] | IC50 (LP-1) | IC50 [2] | IC50 [3] | Kd [4] | IC50 (NCI-H28) | IC50 (U-698-M) | IC50 (SUD4) | IC50 (NCI-H1993) | IC50 [5] | inhibition [6] | inhibition [7] | inhibition [8] | IC50 (BJAB) | IC50 [9] | IC50 (LCLC-103H cell line) | Kd [10] | IC50 (NCI-H522) | Activity [11] | further results |
| --- | --- | --- | --- | --- | --- | --- | --- | --- | --- | --- | --- | --- | --- | --- | --- | --- | --- | --- | --- | --- | --- |
| C/C=C/Cn1cc(-c2ccc(C(=O)N3CCOCC3)cc2)c2cc[nH]c2c1=O | 20 µM | 8% | 20 µM | 20 µM | 20 µM | > 10 µM | 20 µM | 20 µM | 20 µM | 20 µM | 17.7 µM | 4.8% | 1.6% | -1.5% | 16.5 µM | 20 µM | 20 µM | 1.2 µM | 20 µM | 7% | IC50 (Hs 294T): 20 µM; IC50 (CAMA-1): 20 µM; IC50 [12]: 20 µM; IC50 (HT-29): 20 µM; IC50 (CW-2): 20 µM; Activity [13]: 8% |
| C/C=C/Cn1cc(-c2cc(OC)c(C(C)(C)O)cc2OC)c2cc(C)[nH]c2c1=O |  |  |  |  |  | > 10 µM |  |  |  |  |  |  |  |  |  |  |  | > 10 µM |  |  |  |
| C/C=C/Cn1cc(-c2cc(OC)c(C(=O)N3CCOCC3)cc2OC)c2cc(C)[nH]c2c1=O | 2 µM | 12% | 2 µM | 2 µM | 2 µM | > 5 µM | 2 µM | 2 µM | 2 µM | 2 µM | 2 µM | 0% | 0% | 0% | 2 µM | 2 µM | 2 µM | > 10 µM | 2 µM | 6% | IC50 (Hs 294T): 2 µM; IC50 (CAMA-1): 2 µM; IC50 [12]: 2 µM; IC50 (HT-29): 2 µM; IC50 (CW-2): 2 µM; Activity [13]: -10% |
| C/C=C/Cn1cc(-c2ccc(C(C)(C)O)cc2OC)c2cc[nH]c2c1=O | 20 µM | 8% | 19.5 µM | 20 µM | 20 µM | > 10 µM | 20 µM | 20 µM | 8.59 µM | 20 µM | 20 µM | 10.5% | 1% | -0.5% | 20 µM | 20 µM | 20 µM | 0.58 µM | 20 µM | 11% | IC50 (Hs 294T): 20 µM; IC50 (CAMA-1): 20 µM; IC50 [12]: 20 µM; IC50 (HT-29): 20 µM; IC50 (CW-2): 20 µM; Activity [13]: -15% |

Reference: ChEMBL document CHEMBL5260810, “Inhibition of bromodomain-containing protein 9 for the prevention of epigenetically-defined drug resistance” (Bioorg Med Chem Lett, 2017)
